Measured values as given in US8895497B2, “Cathepsin S inhibitors” (DCB-USA, LLC, priority 2009, dated 2014).

How the values were obtained:
[1] = tested on: pancreatic cancer cells; assay: Migration/invasion of pancreatic cancer cells; format: cell-based, human
Protocol: (§1) The cancer cell migration assay was performed in 96-wll-MultiScreen-MIC plates (Millipore) with 8 μm-pore-sized polycarbonate membrane. Briefly, highly-metastatic human lung adenocarcinoma CL1-5 cells were placed onto the upper chamber (2×10^4 cells/well) with tested compounds in complete medium (RPMI 1640 medium containing 1% FBS) and only medium placed onto the lower chamber. The chamber culture was incubated for 24 h at 37° C. and, then, the non-migrated cells were washed off the upper surface of the membrane. The migrated cells on the bottom side were dissociated with Cell Detachment Buffer (Chemicon, Inc.), lysed and stained for nucleic acids with CyQuant GR dye (Molecular Probes). The signal intensities were measured using a fluorescence reader (VICTORTIM 1420 Multilabel Counter, Wallac) at excitation wavelength of 485 nm and emission wavelength of 535 nm (1 sec). The result was presented as the average values from three independent experiments performed in duplicates.
(§2) Similarly, Compounds 1 and 118 were tested against human A2058 melanoma cells and pancreatic cancer cells.

[2] = tested on: human A2058 melanoma cells; assay: Migration/invasion of A2058 melanoma cells; format: cell-based
Protocol: as §1, §2

[3] = tested on: A2058 melanoma cells; assay: In vivo assay, mice inoculated with A2058 melanoma cells; parameters: species or system BALB/cAnN-Foxn1nu/CrlNarl female mice
Protocol: BALB/cAnN-Foxn1nu/CrlNarl female mice were inoculated with A2058 melanoma cells. On day 7, 12 mice were treated i.v. with Compound 1 in DMSO (mg/kg) and 8 mice were treated with DMSO as control. The treatment was continued for 72 days. The mice were sacrificed and their lungs were weighted.

| SMILES | inhibition of migratory and invasice abilities of pancreatic cancer cells [1] | inhibition of migratory and invasice abilities of A2058 melanoma cells [2] | lung weights ([3]; A2058 inoculated mice, i.v. in DMSO from day 7, treatment continued for 72 days, DMSO control 0.671 g) [g] | inhibition of cancer growth in A2058 inoculated mice ([3]; i.v. in DMSO, 72 days) |
| --- | --- | --- | --- | --- |
| O=C(NCCC1CCCCC1)C(O)[C@H](CCc1ccccc1)NC(=O)[C@H](CC1CCCCC1)NC(=O)N1CCOCC1 (stereo partly shown) [Compound 118] | effective inhibited migratory and invasice abilities |  |  |  |
| CCOC(=O)CNC(=O)C(=O)[C@H](COCc1ccccc1)NC(=O)[C@H](CC(C)C)NC(=O)c1cccc2c1C(=O)c1ccccc1-2 (stereo in doubt) [Compound 1, Ethyl 2-(4-(benzyloxy)-3-[((2R)-4-methyl-2-[(9-oxo-9H-1-fluorenyl)carbonyl]aminopropanoyl)amino]-2-oxobutanoylamino)acetate] |  | effectively inhibited migratory and invasice abilities | 0.471 | effectively inhibited cancer growth |
